pIC50: −log10 of the molar value. Calls of active or inactive are those of the source. The rule behind the calls is not given here.
What was measured:
HCC827 [1] = assay: cells; assay type: functional, cell-based; conditions: Homo sapiens, HCC827, 24 h
Description: Antiproliferative activity against human HCC827 cells assessed as inhibition of cell growth incubated for 24 hrs by CCK-8 assay

NCI-H1975 [2] = assay: Antiproliferative activity against human NCI-H1975 cells assessed as reduction in clone size; assay type: functional, cell-based
A549 = assay: Induction of apoptosis in human A549 cells assessed as early apoptotic cells at 2 micromol/L incubated for 24 hrs by Annexin V-FITC/PI staining based analysis (reference value: […]%); assay type: functional; conditions: dose 2 µmol/L
HCC827 [3] = assay: Induction of apoptosis in human HCC827 cells assessed as late apoptotic cells at 1 micromol/L incubated for 24 hrs by Annexin V-FITC/PI staining based analysis (reference value: 8.42%); assay type: functional; conditions: dose 1 µmol/L, at 1 µM
NCI-H1975 [4] = assay: Induction of apoptosis in human NCI-H1975 cells assessed as regulation of Caspase-9 expression by Western blot analysis; assay type: functional, cell-based
NCI-H1975 [5] = assay: Induction of apoptosis in human NCI-H1975 cells assessed as regulation of cleaved Caspase-3 expression by Western blot analysis; assay type: functional, cell-based
NCI-H1975 [6] = assay: Induction of apoptosis in human NCI-H1975 cells assessed as regulation of cytochrome c expression by Western blot analysis; assay type: functional, cell-based
NCI-H1975 [7] = assay: Induction of apoptosis in human NCI-H1975 cells assessed as regulation of Fas expression by Western blot analysis; assay type: functional, cell-based
NCI-H1975 [8] = assay: Induction of apoptosis in human NCI-H1975 cells assessed as regulation of Smac expression by Western blot analysis; assay type: functional, cell-based
NCI-H1975 [9] = assay: Induction of mitochondrial transmembrane potential dissipation in human NCI-H1975 cells assessed as cells with high mitochondrial transmembrane potential at 1 micromol/L by FL-1/FL-2 channel based fluorescence analysis (reference value: 97.4%); assay type: functional; conditions: dose 1 µmol/L; at 1 µM
NCI-H1975 [10] = assay: Induction of mitochondrial transmembrane potential dissipation in human NCI-H1975 cells assessed as cells with low mitochondrial transmembrane potential at 1 micromol/L by FL-1/FL-2 channel based fluorescence analysis (reference value: 2.13%); assay type: functional; conditions: dose 1 µmol/L; at 1 µM
NCI-H1975 [11] = assay: Induction of intracellular ROS accumulation in human NCI-H1975 cells; assay type: functional, cell-based
Pyruvate kinase PKM [12] = target: T1, Pyruvate kinase PKM (Homo sapiens, UniProt P14618); assay: Activation of PKM2 in human HCC827 cells at 1 to 2 micromol/L by Western blot analysis; assay type: cell-based; conditions: filed as activator, dose 1-2 µmol/L
T1 sequence (P14618 2-531 limits assumed): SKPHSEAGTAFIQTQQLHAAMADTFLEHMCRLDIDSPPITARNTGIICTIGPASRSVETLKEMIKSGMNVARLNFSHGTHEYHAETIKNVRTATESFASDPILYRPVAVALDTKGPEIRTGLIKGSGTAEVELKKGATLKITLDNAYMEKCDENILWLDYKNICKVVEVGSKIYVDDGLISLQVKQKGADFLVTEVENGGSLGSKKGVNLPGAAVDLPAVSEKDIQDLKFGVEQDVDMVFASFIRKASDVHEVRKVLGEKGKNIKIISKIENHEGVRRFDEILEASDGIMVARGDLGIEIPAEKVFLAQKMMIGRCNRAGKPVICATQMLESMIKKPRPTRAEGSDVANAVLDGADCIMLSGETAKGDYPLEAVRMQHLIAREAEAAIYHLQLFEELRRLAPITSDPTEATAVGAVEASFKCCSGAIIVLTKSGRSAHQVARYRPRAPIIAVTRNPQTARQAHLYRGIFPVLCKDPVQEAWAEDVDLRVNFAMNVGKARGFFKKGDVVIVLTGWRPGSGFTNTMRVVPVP

Pyruvate kinase PKM [13] = target: T1, Pyruvate kinase PKM; assay: Activation of PKM2 in siRNA mediated PKM2 knockdown human NCI-H1975 cells at 1 to 2 micromol/L by Western blot analysis; assay type: cell-based; conditions: dose 1-2 µmol/L
Pyruvate kinase PKM [14] = target: T1, Pyruvate kinase PKM; assay: Activation of PKM2 in siRNA mediated PKM2 knockdown human HCC827 cells at 1 to 2 micromol/L by Western blot analysis; assay type: cell-based; conditions: dose 1-2 µmol/L
HCC827 [15] = assay: Downregulation of PDK1 protein expression in human HCC827 cells at 1 to 2 micromol/L by Western blot analysis; assay type: functional, cell-based; conditions: dose 1-2 µmol/L
NCI-H1975 [16] = assay: Antiproliferative activity against siRNA mediated […] knockdown human NCI-H1975 cells assessed as inhibition of cell growth incubated for 24 hrs by CCK-8 assay; assay type: functional, cell-based; conditions: NCI-H1975, 24 h
NCI-H1975 [17] = assay: Induction of apoptosis in human NCI-H1975 cells transfected with siRNA assessed as early apoptotic cells at 2 micromol/L incubated for 24 hrs by Annexin V-FITC/PI staining based analysis (reference value: 1.16%); assay type: functional; conditions: dose 2 µmol/L, at 2 µM
NCI-H1975 [18] = assay: Induction of apoptosis in human NCI-H1975 cells with siRNA mediated […] knockdown assessed as late apoptotic cells at 2 micromol/L incubated for 24 hrs by Annexin V-FITC/PI staining based analysis (reference value: 6.25%); assay type: functional; conditions: dose 2 µmol/L, at 2 µM
NCI-H1975 [19] = assay: Antitumor activity against human NCI-H1975 cells xenografted in athymic nu/nu mouse assessed as inhibition of tumor cell proliferation at 2.4 to 4.8 mg/kg, ip administered every 2 days for 11 days by Ki67 staining based analysis; assay type: functional, organism-based; conditions: dose 2.4-4.8 mg/kg, time 11.0 day
NCI-H1975 [20] = assay: Induction of apoptosis in human NCI-H1975 cells assessed as live cells at 0.5 micromol/L incubated for 24 hrs by Annexin V-FITC/PI staining based analysis (reference value: 88.7%); assay type: functional; conditions: dose 0.5 µmol/L, at 0.5 µM
NCI-H1975 [21] = assay: Induction of apoptosis in human NCI-H1975 cells assessed as late apoptotic cells at 10 micromol/L incubated for 24 hrs by Annexin V-FITC/PI staining based analysis (reference value: 8.61%); assay type: functional; conditions: dose 10 µmol/L, at 10 µM
NCI-H1975 [22] = assay: Induction of apoptosis in human NCI-H1975 cells assessed as live cells at 0.5 micromol/L incubated for 24 hrs in presence of gefitinib by Annexin V-FITC/PI staining based analysis (reference value: 88.7%); assay type: functional; conditions: dose 0.5 µmol/L, at 0.5 µM

Structure (SMILES): COC(=O)[C@H](CS[C@H](CC=C(C)C)C1=CC(=O)c2c(O)ccc(O)c2C1=O)NC(=O)CCCC[C@@H]1CCSC(c2ccccc2C)S1 (stereo partly drawn)
- pIC50 (HCC827 [1]): 5.28
- Activity (NCI-H1975 [2]): Dose-Dependent Effect
- Activity (A549): 11.8%
- Activity (HCC827 [3]): 12.1%
- Activity (NCI-H1975 [4]): Active
- Activity (NCI-H1975 [5]): Active
- Activity (NCI-H1975 [6]): Active
- Activity (NCI-H1975 [7]): Active
- Activity (NCI-H1975 [8]): Active
- Activity (NCI-H1975 [9]): 62.2%
- Activity (NCI-H1975 [10]): 11.8%
- Activity (NCI-H1975 [11]): Active
- Activity (Pyruvate kinase PKM [12]): Active
- Activity (Pyruvate kinase PKM [13]): inactive
- Activity (Pyruvate kinase PKM [14]): inactive
- Activity (HCC827 [15]): inactive
- pIC50 (NCI-H1975 [16]): 5.05
- Activity (NCI-H1975 [17]): 8.24%
- Activity (NCI-H1975 [18]): 8.16%
- Activity (NCI-H1975 [19]): Active
- Activity (NCI-H1975 [20]): 87.3%
- Activity (NCI-H1975 [21]): 9.56%
- Activity (NCI-H1975 [22]): 57.5%
